According to PubChem BioAssay AID1918933 (Molecular Pharmacology Branch, DTP, NCI, 2023):
Values joined by “and” are separate entries in the source; they are usually repeats but may differ in a detail not shown here. Equal values may be shown once.

System: 186277-243-T-J2-PDC complex spheroid viability
Assay: Anticancer human tumor 186277-243-T-J2-PDC patient-derived colon adenocarcinoma cell line growth inhibition
Conditions: for viability, T/C: stronger effect = lower value
Text: Multicellular complex tumor spheroid response to LSD1 Inhibitor Iadademstat in combination with a variety of drugs and investigational agents in selected tumor cell lines
The current study was undertaken to assess response to LSD1 inhibitors in combination with standard-of-care drugs and investigational agents in solid tumor complex spheroid models as well as in the K-562 leukemia. Complex spheroids include a stromal component modeled by human endothelial cells (HUVEC) and fibroblasts modeled by human mesenchymal stem cells (MSCs). The concentration ranges selected for each drug and investigational agent were based upon clinically achievable concentrations if the clinical Cmax of the agent was known.
Compounds. The drugs and investigational agents used in this study are listed on Table 1. All of the agents used, including staurosporine (NSC755774) and gemcitabine (NSC613327), were obtained from the Developmental Therapeutics Program, NCI. FDA-approved anticancer drugs are available from the NCI at http://dtp.nci.nih.gov/branches/dscb/oncology_drugset_explanation.html. Drugs and investigational agents were >95% pure by proton nuclear magnetic resonance (NMR) and liquid chromatography/mass spectrometry (LC/MS). Stock solutions were prepared at 400x in DMSO, stored at -70 degrees C, and diluted in fresh medium prior to their use. The final concentration of DMSO in cell culture wells never exceeded 0.25% (v/v). The FDA-approved anticancer drug set is available from the Developmental Therapeutics Program at https://dtp.cancer.gov/organization/dscb/obtaining/available_plates.htm. All drugs and investigational agents were tested over a range starting from a high concentration at or near the clinical Cmax and decreasing in half-log increments. If the clinical Cmax for an agent had not been determined, the highest concentration tested was 10 microM.
Cell Lines. The patient-derived cancer cell (PDC) lines: 292921-168-R-J2-PDC, K24384-001-R-PDC, and 521955-158-R2-J5-PDC pancreatic carcinomas, 556581-035-R-J1 ovarian carcinoma, 324938-238-R-J1-PDC, 855422-203-R-J1-PDC and 883617-216-R-J1-PDC urothelial bladder carcinomas, 743489-274-T-PDC renal cell carcinoma, 138582-R-J1 Merkel cell tumor, K60290-347-R-J1 and K57222-313-R-J1-PDC glioblastomas, 653999-131-R-J2-PDC, LG0703-F948-PDC, and 349418-098-R-PDC non-small cell lung carcinomas, 885512-296-R-J2-PDC, 171881-019-R-J1-PDC breast carcinomas and 186277-243-T-J2-PDC and 233499-124-R-J2-PDC colon carcinomas were obtained from the NCI Patient-Derived Models Repository (PDMR, https://pdmr.cancer.gov). The established cell lines NCI/ADR-RES (RRID:CVCL_14520 and OVCAR-5 (RRID:CVCL_1628) ovarian carcinomas, 786-O (RRID:CVCL_1051) and A498 (RRID:CVCL_A498) renal cell carcinoma, NCI-H211 (ATCC, cat. CRL-5824; RRID:CVCL_1529), NCI-H196 (ATCC, cat. CRL-5823, RRID:CVCL_1509), SW 1271 (ATCC, cat. CRL-2177, RRID:CVCL_1716) and NCI-H1876 (ATCC, cat. CRL-5902, RRID:CVCL_1503) small cell lung carcinomas, MDA-MB-231 (RRID:CVCL_0062) and MDA-MB-468 (RRID:CVCL_0419)breast carcinomas (10-12). Pooled donor human umbilical vein endothelial cells (HUVEC, Lonza, cat. CC-2519) and human mesenchymal stem cells (hMSC, Lonza, cat. PT-2501) were purchased from Lonza (Walkersville, MD).
Cell Culture. All cells were maintained in an incubator at 37 degrees C and 5% CO2 with 95% humidity. The PDC lines were cultured according to standard operating procedures established by the NCI PDMR (https://pdmr.cancer.gov). Briefly all PDCs were thawed and cultured in Matrigel-coated flasks prepared with a working solution of 1X Ham's F-12 nutrient mix, without supplementation (Invitrogen, Waltham, MA, cat. 11765054), 100 U/mL penicillin-streptomycin (Invitrogen, cat. 15140122), and 2.5% Matrigel (Corning Inc., Corning, NY, cat. 354248) for the first three passages. […]

[1] = curve of first compound, second compound 0.1 µM
[2] = curve of first compound, second compound 0.316 µM
[3] = curve of first compound, second compound 1 µM
[4] = curve of first compound, second compound 3.16 µM
[5] = curve of first compound, second compound 10 µM
[6] = second compound 0.1 µM, first compound 0.0316 µM
[7] = second compound 0.1 µM, first compound 0.1 µM
[8] = second compound 0.316 µM, first compound 0.0316 µM
[9] = second compound 0.316 µM, first compound 0.1 µM
[10] = second compound 1 µM, first compound 0.0316 µM
[11] = second compound 1 µM, first compound 0.1 µM
[12] = second compound 3.16 µM, first compound 0.0316 µM
[13] = second compound 3.16 µM, first compound 0.1 µM
[14] = second compound 10 µM, first compound 0.0316 µM
[15] = second compound 10 µM, first compound 0.1 µM
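Further: 7 day exposure to compounds.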
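Wherever viability, T/C is given: 100% = DMSO vehicle control viability.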

`CC1COCCN1c1cc(C2(S(C)(=N)=O)CC2)nc(-c2ccnc3[nH]ccc23)n1` (configuration not stated) + NC1CCC(NC2CC2c2ccccc2)CC1 showed an IC50 [1] of 0.438 µM, an IC50 [2] of 0.457 µM and an IC50 [3] of 0.44 µM. The IC50 [4] was 0.517 µM, the IC50 [5] was 0.533 µM and the viability, T/C [6] was 123%. The viability, T/C [7] was 108%, the viability, T/C (second compound 0.1 µM, first compound 0.316 µM) was 63% and the viability, T/C (second compound 0.1 µM, first compound 1 µM) was 17.9%. It also gave a viability, T/C (second compound 0.1 µM, first compound 3.16 µM) of 10.8%, a viability, T/C (second compound 0.1 µM, first compound 10 µM) of 6.11% and a viability, T/C [8] of 117%. It also gave a viability, T/C [9] of 115%, a viability, T/C (second compound 0.316 µM, first compound 0.316 µM) of 65.1% and a viability, T/C (second compound 0.316 µM, first compound 1 µM) of 17.7%. It also gave a viability, T/C (second compound 0.316 µM, first compound 3.16 µM) of 11%, a viability, T/C (second compound 0.316 µM, first compound 10 µM) of 7.27% and a viability, T/C [10] of 118%. The viability, T/C [11] was 112%, the viability, T/C (second compound 1 µM, first compound 0.316 µM) was 62.8% and the viability, T/C (second compound 1 µM, first compound 1 µM) was 17.5%. It also gave a viability, T/C (second compound 1 µM, first compound 3.16 µM) of 11.1%, a viability, T/C (second compound 1 µM, first compound 10 µM) of 6.95% and a viability, T/C [12] of 122%. The viability, T/C [13] was 123%, the viability, T/C (second compound 3.16 µM, first compound 0.316 µM) was 71.3% and the viability, T/C (second compound 3.16 µM, first compound 1 µM) was 21.8%. It also gave a viability, T/C (second compound 3.16 µM, first compound 3.16 µM) of 11.5%, a viability, T/C (second compound 3.16 µM, first compound 10 µM) of 7.92% and a viability, T/C [14] of 115%. For the same compound, the viability, T/C [15] was 123%, the viability, T/C (second compound 10 µM, first compound 0.316 µM) was 71% and the viability, T/C (second compound 10 µM, first compound 1 µM) was 26.1%. The viability, T/C (second compound 10 µM, first compound 3.16 µM) was 16.7% and the viability, T/C (second compound 10 µM, first compound 10 µM) was 9.23%.
For `CC(C)CC(NC(=O)C(Cc1ccccc1)NC(=O)c1cnccn1)B(O)O` (configuration not stated) + NC1CCC(NC2CC2c2ccccc2)CC1, the IC50 [1] was 0.00372 µM, the IC50 [2] was 0.00394 µM and the IC50 [3] was 0.00367 µM. For the same compound, the IC50 [4] was 0.00454 µM, the IC50 [5] was 0.00395 µM and the viability, T/C (second compound 0.1 µM, first compound 0.000316 µM) was 103%. The viability, T/C (second compound 0.1 µM, first compound 0.001 µM) was 107%, the viability, T/C (second compound 0.1 µM, first compound 0.00316 µM) was 58.1% and the viability, T/C (second compound 0.1 µM, first compound 0.01 µM) was 0.46%. For the same compound, the viability, T/C [6] was 0.13%, the viability, T/C [7] was 0.28% and the viability, T/C (second compound 0.316 µM, first compound 0.000316 µM) was 113%. It also gave a viability, T/C (second compound 0.316 µM, first compound 0.001 µM) of 107%, a viability, T/C (second compound 0.316 µM, first compound 0.00316 µM) of 61.5% and a viability, T/C (second compound 0.316 µM, first compound 0.01 µM) of 0.8%. It also gave a viability, T/C [8] of 0.31%, a viability, T/C [9] of 0.65% and a viability, T/C (second compound 1 µM, first compound 0.000316 µM) of 111%. The viability, T/C (second compound 1 µM, first compound 0.001 µM) was 107%, the viability, T/C (second compound 1 µM, first compound 0.00316 µM) was 57.4% and the viability, T/C (second compound 1 µM, first compound 0.01 µM) was 0.43%. It also gave a viability, T/C [10] of 0.44%, a viability, T/C [11] of 0.16% and a viability, T/C (second compound 3.16 µM, first compound 0.000316 µM) of 107%. It also gave a viability, T/C (second compound 3.16 µM, first compound 0.001 µM) of 124%, a viability, T/C (second compound 3.16 µM, first compound 0.00316 µM) of 72.7% and a viability, T/C (second compound 3.16 µM, first compound 0.01 µM) of 0.98%. The viability, T/C [12] was 0.25%, the viability, T/C [13] was 0.11% and the viability, T/C (second compound 10 µM, first compound 0.000316 µM) was 111%. For the same compound, the viability, T/C (second compound 10 µM, first compound 0.001 µM) was 98.5%, the viability, T/C (second compound 10 µM, first compound 0.00316 µM) was 62% and the viability, T/C (second compound 10 µM, first compound 0.01 µM) was 0.43%. For the same compound, the viability, T/C [14] was 0.16% and the viability, T/C [15] was 0.43%.
With `COc1cc(C2c3cc4c(cc3C(OC3OC5COC(C)OC5C(O)C3O)C3COC(=O)C23)OCO4)cc(OC)c1O` (configuration not stated) the viability, T/C (compound 0.00949 µM) was 101% and 112%, the viability, T/C (compound 0.03 µM) was 100% and 124% and the viability, T/C (compound 0.0949 µM) was 92.8% and 98.9%. The viability, T/C (compound 0.3 µM) was 75.2% and 70.9%, the viability, T/C (compound 0.949 µM) was 61.2% and 39% and the viability, T/C (compound 3 µM) was 40.3% and 17.3%. The IC50 (curve of compound) was 1.7 µM and 0.618 µM.
